Measured values taken from PubChem BioAssay (NCI).
Values joined by “and” are separate entries in the source; they are usually repeats but may differ in a detail not shown here. Equal values may be shown once.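 Results reflect a 48-hour exposure of cells in 96-well plates to compound at five concentrations. GI50: concentration for 50% inhibition of growth. Definition used: TGI = concentration required for complete inhibition of growth.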

Experiments:
Experiment in all cases: NCI-60 cell line screen, 48 h
COLO 205 colon = system: COLO 205 colon
SNB-19 CNS = system: SNB-19 CNS
HS 578T breast = system: HS 578T breast
HCT-15 colon = system: HCT-15 colon
OVCAR-8 ovarian = system: OVCAR-8 ovarian
OVCAR-5 ovarian = system: OVCAR-5 ovarian
HL-60(TB) leukemia = system: HL-60(TB) leukemia
NCI-H226 lung = system: NCI-H226 lung
SW-620 colon = system: SW-620 colon
NCI-H522 lung = system: NCI-H522 lung

CC(C)[C@@H]1NC(=O)[C@]2(C)CSC(=N2)c2csc(n2)CNC(=O)C[C@@H](/C=C/CCS)OC1=O
GI50 (COLO 205 colon): 0.228 µM
TGI (COLO 205 colon): 0.709 µM
GI50 (SNB-19 CNS): 0.168 µM
TGI (SNB-19 CNS): > 44.3 µM
GI50 (HS 578T breast): 0.0471 µM
GI50 (HCT-15 colon): 5.12 µM
TGI (HCT-15 colon): > 100 µM
GI50 (OVCAR-8 ovarian): 0.0858 µM
TGI (OVCAR-8 ovarian): > 100 µM
GI50 (OVCAR-5 ovarian): 0.0829 µM
TGI (OVCAR-5 ovarian): > 100 µM
GI50 (HL-60(TB) leukemia): 0.361 µM
TGI (HL-60(TB) leukemia): > 100 µM
GI50 (NCI-H226 lung): 0.403 µM
TGI (NCI-H226 lung): 7.69 µM
GI50 (SW-620 colon): 0.227 µM
TGI (SW-620 colon): 2.28 µM
GI50 (NCI-H522 lung): 0.165 µM
TGI (NCI-H522 lung): 3.75 µM

CCCCCCCCCCCCCCCCCC(=O)[O][Sn]([CH2]CCC)([CH2]CCC)[CH2]CCC
GI50 (COLO 205 colon): 0.171 µM
TGI (COLO 205 colon): 0.373 µM
GI50 (SNB-19 CNS): 0.167 µM
TGI (SNB-19 CNS): 0.338 µM
GI50 (HS 578T breast): 0.217 µM
TGI (HS 578T breast): 0.752 µM
GI50 (HCT-15 colon): 0.146 µM
TGI (HCT-15 colon): 0.38 µM
GI50 (OVCAR-8 ovarian): 0.197 µM
TGI (OVCAR-8 ovarian): 0.451 µM
GI50 (OVCAR-5 ovarian): 0.137 µM
TGI (OVCAR-5 ovarian): 0.34 µM
GI50 (HL-60(TB) leukemia): 0.179 µM
TGI (HL-60(TB) leukemia): 0.489 µM
GI50 (NCI-H226 lung): 0.162 µM
TGI (NCI-H226 lung): 0.319 µM
GI50 (SW-620 colon): 0.137 µM
TGI (SW-620 colon): 0.289 µM
GI50 (NCI-H522 lung): 0.14 µM
TGI (NCI-H522 lung): 0.318 µM

O=C1OCC2=C1C(c1cccc([N+](=O)[O-])c1)c1cc3c(cc1N2CCO)CCC3 (centres undefined)
GI50 (COLO 205 colon): 0.153 µM
TGI (COLO 205 colon): 2.39 µM
GI50 (SNB-19 CNS): 0.2 µM
TGI (SNB-19 CNS): > 50 µM
GI50 (HS 578T breast): 0.18 µM
TGI (HS 578T breast): > 50 µM
GI50 (HCT-15 colon): 0.121 µM
TGI (HCT-15 colon): > 50 µM
GI50 (OVCAR-8 ovarian): 0.244 µM
TGI (OVCAR-8 ovarian): > 50 µM
GI50 (OVCAR-5 ovarian): 0.231 µM
TGI (OVCAR-5 ovarian): > 50 µM
GI50 (HL-60(TB) leukemia): 0.137 µM
TGI (HL-60(TB) leukemia): 0.373 µM
GI50 (NCI-H226 lung): 1.77 µM
TGI (NCI-H226 lung): 49.4 µM
GI50 (SW-620 colon): 0.179 µM
TGI (SW-620 colon): > 50 µM
GI50 (NCI-H522 lung): 0.0431 µM
TGI (NCI-H522 lung): 6.3 µM

COc1ccc(S(=O)(=O)Nc2cc(/C=C\c3cc(OC)c(OC)c(OC)c3)cc(OC)c2OC)cc1OC
GI50 (COLO 205 colon): 1.28 µM
TGI (COLO 205 colon): > 100 µM
GI50 (SNB-19 CNS): 1.11 µM
TGI (SNB-19 CNS): > 100 µM
GI50 (HS 578T breast): 3.42 µM
TGI (HS 578T breast): > 100 µM
GI50 (HCT-15 colon): 0.671 µM
TGI (HCT-15 colon): > 100 µM
GI50 (OVCAR-8 ovarian): 4.08 µM
TGI (OVCAR-8 ovarian): > 100 µM
GI50 (OVCAR-5 ovarian): 6.57 µM
TGI (OVCAR-5 ovarian): > 100 µM
GI50 (HL-60(TB) leukemia): 0.37 µM
TGI (HL-60(TB) leukemia): > 100 µM
GI50 (NCI-H226 lung): 1.87 µM
TGI (NCI-H226 lung): > 100 µM
GI50 (SW-620 colon): 0.478 µM
TGI (SW-620 colon): > 100 µM
GI50 (NCI-H522 lung): 0.369 µM
TGI (NCI-H522 lung): > 100 µM

Clc1cccc(Cn2cc(Cc3cn(Cc4cccc(Cl)c4)c4ccccc34)c3ccccc32)c1
GI50 (COLO 205 colon): > 100 µM
TGI (COLO 205 colon): > 100 µM
GI50 (SNB-19 CNS): > 100 µM
TGI (SNB-19 CNS): > 100 µM
GI50 (HS 578T breast): > 100 µM
TGI (HS 578T breast): > 100 µM
GI50 (HCT-15 colon): > 100 µM
TGI (HCT-15 colon): > 100 µM
GI50 (OVCAR-8 ovarian): > 100 µM
TGI (OVCAR-8 ovarian): > 100 µM
GI50 (OVCAR-5 ovarian): 47.1 µM
TGI (OVCAR-5 ovarian): > 100 µM
GI50 (HL-60(TB) leukemia): > 100 µM
TGI (HL-60(TB) leukemia): > 100 µM
GI50 (NCI-H226 lung): 10.1 µM
TGI (NCI-H226 lung): 59 µM
GI50 (SW-620 colon): > 100 µM
TGI (SW-620 colon): > 100 µM
GI50 (NCI-H522 lung): 45.5 µM
TGI (NCI-H522 lung): > 100 µM

COc1ccccc1/C=C1\CCC(CN(C)C)C1=O (centres undefined)
TGI (COLO 205 colon): 8.38 µM
TGI (SNB-19 CNS): 26.7 µM
TGI (HS 578T breast): > 45.8 µM
TGI (HCT-15 colon): 7.85 µM
TGI (OVCAR-8 ovarian): 26.3 µM
TGI (OVCAR-5 ovarian): 24.2 µM
TGI (HL-60(TB) leukemia): 6.68 µM
TGI (NCI-H226 lung): 25 µM
TGI (SW-620 colon): 6 µM
TGI (NCI-H522 lung): 3.56 µM

Nc1cccc(-c2nc3sccn3c2-c2ccnc(NCCCNS(=O)(=O)c3ccc(C(F)(F)F)cc3)n2)c1
GI50 (COLO 205 colon): 3.32 µM
TGI (COLO 205 colon): 13.1 µM
GI50 (SNB-19 CNS): 8.33 µM
TGI (SNB-19 CNS): > 100 µM
GI50 (HS 578T breast): 4.05 µM
TGI (HS 578T breast): 61.6 µM
GI50 (HCT-15 colon): 3.33 µM
TGI (HCT-15 colon): 29.9 µM
GI50 (OVCAR-8 ovarian): 3.49 µM
TGI (OVCAR-8 ovarian): 44.9 µM
GI50 (OVCAR-5 ovarian): 13.7 µM
TGI (OVCAR-5 ovarian): 95.1 µM
GI50 (HL-60(TB) leukemia): 3.28 µM
TGI (HL-60(TB) leukemia): 11.8 µM
GI50 (NCI-H226 lung): 3.14 µM
TGI (NCI-H226 lung): 16.5 µM
GI50 (SW-620 colon): 8 µM
TGI (SW-620 colon): > 100 µM
GI50 (NCI-H522 lung): 3.35 µM
TGI (NCI-H522 lung): 18.2 µM

CCN1CCN(CCNc2nccc(-c3c(-c4cccc(O)c4)nc4sccn34)n2)S1(=O)=O
GI50 (COLO 205 colon): 0.296 µM and 0.336 µM
TGI (COLO 205 colon): 32.5 µM and 15.9 µM
GI50 (SNB-19 CNS): > 32.5 µM and 71.5 µM
TGI (SNB-19 CNS): > 100 µM
GI50 (HS 578T breast): 12.9 µM and 10 µM
TGI (HS 578T breast): 30.2 µM and > 100 µM
GI50 (HCT-15 colon): 11.7 µM and 8.63 µM
TGI (HCT-15 colon): 32.5 µM and > 100 µM
GI50 (OVCAR-8 ovarian): 16.1 µM and 10.9 µM
TGI (OVCAR-8 ovarian): 32.5 µM and > 100 µM
GI50 (OVCAR-5 ovarian): 21.7 µM and 65 µM
TGI (OVCAR-5 ovarian): 32.5 µM and > 100 µM
GI50 (HL-60(TB) leukemia): 11.8 µM
TGI (HL-60(TB) leukemia): 32.5 µM
GI50 (NCI-H226 lung): > 32.5 µM and 26.4 µM
TGI (NCI-H226 lung): > 32.5 µM and 84.3 µM
GI50 (SW-620 colon): 21.1 µM and 15.7 µM
TGI (SW-620 colon): 32.5 µM and 92.5 µM
GI50 (NCI-H522 lung): 7.65 µM and 4.27 µM
TGI (NCI-H522 lung): 29.8 µM and 31.2 µM

O=C(Nc1cccnc1)c1cccs1
GI50 (COLO 205 colon): 3.08 µM
TGI (COLO 205 colon): > 100 µM
GI50 (SNB-19 CNS): 9.56 µM
TGI (SNB-19 CNS): > 100 µM
GI50 (HS 578T breast): > 100 µM
TGI (HS 578T breast): > 100 µM
GI50 (HCT-15 colon): 0.658 µM
TGI (HCT-15 colon): > 100 µM
GI50 (OVCAR-8 ovarian): 8.94 µM
TGI (OVCAR-8 ovarian): > 100 µM
GI50 (OVCAR-5 ovarian): 45.4 µM
TGI (OVCAR-5 ovarian): > 100 µM
GI50 (HL-60(TB) leukemia): 48.1 µM
TGI (HL-60(TB) leukemia): > 100 µM
GI50 (NCI-H226 lung): 41 µM
TGI (NCI-H226 lung): > 100 µM
GI50 (SW-620 colon): 2.09 µM
TGI (SW-620 colon): > 100 µM
GI50 (NCI-H522 lung): > 100 µM
TGI (NCI-H522 lung): > 100 µM

C[C@H]1O[C@@H](O[C@H]2[C@@H](O)C[C@H](O[C@H]3[C@@H](O)C[C@H](O[C@H]4CC[C@]5(C)C6C[C@@H](O)[C@]7(C)[C@@H](C8=CC(=O)OC8)CC[C@]7(O)C6CC[C@@H]5C4)O[C@@H]3C)O[C@@H]2C)C[C@H](O)[C@@H]1O (some centres undefined)
GI50 (COLO 205 colon): 0.146 µM
TGI (COLO 205 colon): 0.374 µM
GI50 (SNB-19 CNS): 0.175 µM
TGI (SNB-19 CNS): 0.678 µM
GI50 (HS 578T breast): 0.0311 µM
TGI (HS 578T breast): 4.3 µM
GI50 (HCT-15 colon): 0.128 µM
TGI (HCT-15 colon): 0.366 µM
GI50 (OVCAR-8 ovarian): 0.0788 µM
TGI (OVCAR-8 ovarian): 0.198 µM
GI50 (OVCAR-5 ovarian): 0.114 µM
TGI (OVCAR-5 ovarian): 0.286 µM
GI50 (HL-60(TB) leukemia): 0.034 µM
TGI (HL-60(TB) leukemia): 0.12 µM
GI50 (NCI-H226 lung): 0.102 µM
TGI (NCI-H226 lung): 0.191 µM
GI50 (SW-620 colon): 0.049 µM
TGI (SW-620 colon): 0.174 µM
GI50 (NCI-H522 lung): 0.015 µM
TGI (NCI-H522 lung): 0.0695 µM

C=C1C(=O)O[C@H]2[C@H]1CC/C(COC(=O)NCc1c[nH]c3ccc(OC)cc13)=C\CC[C@@]1(C)O[C@@H]21
GI50 (COLO 205 colon): 1.22 µM
TGI (COLO 205 colon): 2.71 µM
GI50 (SNB-19 CNS): 4.76 µM
TGI (SNB-19 CNS): 18.4 µM
GI50 (HS 578T breast): 2.75 µM
TGI (HS 578T breast): 16.2 µM
GI50 (HCT-15 colon): 1.34 µM
TGI (HCT-15 colon): 2.73 µM
GI50 (OVCAR-8 ovarian): 1.61 µM
TGI (OVCAR-8 ovarian): 5.53 µM
GI50 (OVCAR-5 ovarian): 2.14 µM
TGI (OVCAR-5 ovarian): 4.9 µM
GI50 (HL-60(TB) leukemia): 0.255 µM
TGI (HL-60(TB) leukemia): 1.88 µM
GI50 (NCI-H226 lung): 14.9 µM
TGI (NCI-H226 lung): 35.5 µM
GI50 (SW-620 colon): 0.45 µM
TGI (SW-620 colon): 1.92 µM
GI50 (NCI-H522 lung): 0.89 µM
TGI (NCI-H522 lung): 2.38 µM
